We go through 29 compounds from US8703768B2, “Nitrogen containing heteroaryl compounds” (Hoffmann-La Roche Inc., priority 2010, dated 2014).

By IC50 is commonly meant the midpoint of a concentration-inhibition curve.

The structures appear in SMILES notation.

In this experiment the target is human PDE10A (Homo sapiens (Human), UniProt Q9Y233). Description: human PDE10A full length Scintillation Proximity Assay (SPA). In kind it is biochemical. To be noted: 50 nM cGMP and 50 nM [3H]-cGMP, 20 minutes at room temperature; read-out: PDE10A inhibition IC50. Here is the method:
The following test was carried out in order to determine the activity of the compounds of the present invention.
The human PDE10A full length assay was performed in 96-well micro titer plates. […] Non-specific activity was tested without the enzyme. The reaction was initiated by the addition of the substrate solution (cGMP and [^3H]-cGMP) and allowed to progress for 20 minutes at room temperature. The reaction was terminated by adding 25 μl of YSi-SPA scintillation beads (GE Healthcare, cat. # RPNQ0150) in 18 mM zinc sulphate solution (stop reagent). After 1 h under shaking, the plate was centrifuged one minute at 170 g to allow beads to settle. Afterwards, radioactive counts were measured on a Perkin Elmer TopCount Scintillation plate reader.
For orientation: Scintillation proximity formats need no separation of bound from free tracer.

Sequence of human PDE10A (Q9Y233 other isoform, or with tags, fused parts or gaps): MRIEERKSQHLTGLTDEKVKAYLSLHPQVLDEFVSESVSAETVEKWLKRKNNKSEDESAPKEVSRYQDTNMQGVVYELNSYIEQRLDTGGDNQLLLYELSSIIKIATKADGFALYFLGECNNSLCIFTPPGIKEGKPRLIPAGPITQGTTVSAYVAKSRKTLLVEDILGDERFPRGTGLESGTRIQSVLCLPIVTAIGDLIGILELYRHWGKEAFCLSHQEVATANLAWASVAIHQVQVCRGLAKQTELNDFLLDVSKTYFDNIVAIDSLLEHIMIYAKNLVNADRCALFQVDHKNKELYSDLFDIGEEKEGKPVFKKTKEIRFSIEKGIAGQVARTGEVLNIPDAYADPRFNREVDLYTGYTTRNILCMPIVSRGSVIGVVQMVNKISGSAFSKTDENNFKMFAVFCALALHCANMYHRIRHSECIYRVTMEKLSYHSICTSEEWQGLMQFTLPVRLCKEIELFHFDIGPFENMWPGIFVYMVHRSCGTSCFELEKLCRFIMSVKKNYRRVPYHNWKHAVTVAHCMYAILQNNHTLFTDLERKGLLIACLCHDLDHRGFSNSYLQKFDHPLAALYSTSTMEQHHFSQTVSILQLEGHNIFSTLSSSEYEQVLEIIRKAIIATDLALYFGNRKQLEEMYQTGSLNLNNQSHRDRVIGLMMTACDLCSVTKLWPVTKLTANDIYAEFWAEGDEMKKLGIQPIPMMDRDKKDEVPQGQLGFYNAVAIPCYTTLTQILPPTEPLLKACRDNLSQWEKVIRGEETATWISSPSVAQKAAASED

As to `CC(C)(O)CNC(=O)c1nc(C2CC2)ccc1NC(=O)c1nc(C2CC2)cnc1Nc1cncnc1` [Example 159, 6-Cyclopropyl-3-(pyrimidin-5-ylamino)-pyrazine-2-carboxylic acid [6-cyclopropyl-2-(2-hydroxy-2-methyl-propylcarbamoyl)-pyridin-3-yl]-amide], the IC50 amounted to 0.4 nM.

For the compound `O=C(Nc1cnccc1C(=O)N1CCC(O)C1)c1nc(C2CC2)ccc1Nc1cncnc1` (centres unmarked) [Example 87], the IC50 worked out at 180 nM.

Take `CN(CC(O)CO)C(=O)c1ccncc1NC(=O)c1nc(C2CC2)ccc1Nc1cncnc1` (centres unmarked) [Example 86, 6-Cyclopropyl-3-(pyrimidin-5-ylamino)-pyridine-2-carboxylic acid {4-[(2,3-dihydroxy-propyl)-methyl-carbamoyl]-pyridin-3-yl}-amide]: the IC50 amounted to 215 nM.

For the compound `Cc1ccc(NC(=O)c2nc(C3CC3)cnc2Nc2cncnc2)c(C(=O)N2CCC2)n1` [Example 278, 6-Cyclopropyl-3-(pyrimidin-5-ylamino)-pyrazine-2-carboxylic acid [2-(azetidine-1-carbonyl)-6-methyl-pyridin-3-yl]-amide], the IC50 amounted to 1.9 nM.

Take `CC1CCCN1C(=O)c1c(NC(=O)c2nc(C3CC3)cnc2Nc2cncnc2)cnn1C` (centres unmarked) [Example 239, 6-Cyclopropyl-3-(pyrimidin-5-ylamino)-pyrazine-2-carboxylic acid [1-methyl-5-(2-methyl-pyrrolidine-1-carbonyl)-1H-pyrazol-4-yl]-amide]: the IC50 was determined as 47.7 nM.

Take `CNC(=O)c1cn2cc(-c3ccccc3)nc2cc1NC(=O)c1nc(C2CC2)ccc1Nc1cncnc1` [Example 81, 7-{[6-Cyclopropyl-3-(pyrimidin-5-ylamino)-pyridine-2-carbonyl]-amino}-2-phenyl-imidazo[1,2-a]pyridine-6-carboxylic acid methylamide]: the IC50 was 0.4 nM.

With `O=C(Nc1cncnc1C(=O)N1CCC1)c1nc(C2CC2)cnc1Nc1cncnc1` [Example 211, 6-Cyclopropyl-3-(pyrimidin-5-ylamino)-pyrazine-2-carboxylic acid [4-(azetidine-1-carbonyl)-pyrimidin-5-yl]-amide], the IC50 is 2650 nM.

Regarding `CNC(=O)c1c(NC(=O)c2nc(C3CC3)cnc2Nc2cncnc2)cnn1C1CCOC1` (centres unmarked) [Example 250, 6-Cyclopropyl-3-(pyrimidin-5-ylamino)-pyrazine-2-carboxylic acid [5-methylcarbamoyl-1-(tetrahydro-furan-3-yl)-1H-pyrazol-4-yl]-amide], the IC50 amounted to 15.9 nM.

Take `Cn1cc(NC(=O)c2nc(C3CC3)ccc2Nc2cncnc2)c(C(=O)N2CCC(C)(C)C2)n1` [Example 32, 6-Cyclopropyl-3-(pyrimidin-5-ylamino)-pyridine-2-carboxylic acid [3-(3,3-dimethyl-pyrrolidine-1-carbonyl)-1-methyl-1H-pyrazol-4-yl]-amide]: the IC50 stood at 7.3 nM.

Turning to `Cn1cc(NC(=O)c2nc(C3CC3)ccc2Nc2cncnc2)c(C(=O)NC2CC2)n1` [Example 31, 6-Cyclopropyl-3-(pyrimidin-5-ylamino)-pyridine-2-carboxylic acid (3-cyclopropylcarbamoyl-1-methyl-1H-pyrazol-4-yl)-amide], the IC50 amounted to 3.1 nM.

As for `Cn1ncc(NC(=O)c2nc(C3CC3)cnc2Nc2cncnc2)c1C(=O)NCC(C)(C)CO` [Example 142, 6-Cyclopropyl-3-(pyrimidin-5-ylamino)-pyrazine-2-carboxylic acid [5-(3-hydroxy-2,2-dimethyl-propylcarbamoyl)-1-methyl-1H-pyrazol-4-yl]-amide], the IC50 worked out at 1.1 nM.

With `CCCN(C)C(=O)c1c(NC(=O)c2nc(C3CC3)cnc2Nc2cncnc2)cnn1C` [Example 229, 6-Cyclopropyl-3-(pyrimidin-5-ylamino)-pyrazine-2-carboxylic acid [1-methyl-5-(methyl-propyl-carbamoyl)-1H-pyrazol-4-yl]-amide], the IC50 turned out to be 12.6 nM.

Take `CC(C)Cn1ncc(NC(=O)c2nc(C3CC3)cnc2Nc2cncnc2)c1C(=O)NCC(C)(C)O` [Example 134, 6-Cyclopropyl-3-(pyrimidin-5-ylamino)-pyrazine-2-carboxylic acid [5-(2-hydroxy-2-methyl-propylcarbamoyl)-1-isobutyl-1H-pyrazol-4-yl]-amide]: the IC50 came out at 21.5 nM.

Regarding `CCNC(=O)c1c(NC(=O)c2nc(C3CC3)cnc2Nc2cncnc2)cnn1CC` [Example 201, 6-Cyclopropyl-3-(pyrimidin-5-ylamino)-pyrazine-2-carboxylic acid (1-ethyl-5-ethylcarbamoyl-1H-pyrazol-4-yl)-amide], the IC50 was 11.5 nM.

`CNC(=O)c1nn(C)cc1NC(=O)c1nc(C2CC2)cnc1Nc1cncnc1` [Example 5, 6-Cyclopropyl-3-(pyrimidin-5-ylamino)-pyrazine-2-carboxylic acid (1-methyl-3-methylcarbamoyl-1H-pyrazol-4-yl)-amide]: the IC50 amounted to 5.2 nM.

In the case of `CC(NC(=O)c1c(NC(=O)c2nc(C3CC3)cnc2Nc2cncnc2)cnn1C)C(F)(F)F` (centres unmarked) [Example 164, 6-Cyclopropyl-3-(pyrimidin-5-ylamino)-pyrazine-2-carboxylic acid [1-methyl-5-(2,2,2-trifluoro-1-methyl-ethylcarbamoyl)-1H-pyrazol-4-yl]-amide], the IC50 was 5.2 nM.

On to `CN1CCC(N(C)C(=O)c2c(NC(=O)c3nc(C4CC4)cnc3Nc3cncnc3)cnn2C)C1` (centres unmarked) [Example 247, 6-Cyclopropyl-3-(pyrimidin-5-ylamino)-pyrazine-2-carboxylic acid {1-methyl-5-[methyl-(1-methyl-pyrrolidin-3-yl)-carbamoyl]-1H-pyrazol-4-yl}-amide], for which the IC50 was found to be 290 nM.

With `CNC(=O)c1c(NC(=O)c2nc(C3CC3)ccc2Nc2cncnc2)cnn1C` [Example 148, 6-Cyclopropyl-3-(pyrimidin-5-ylamino)-pyridine-2-carboxylic acid (1-methyl-5-methylcarbamoyl-1H-pyrazol-4-yl)-amide], the IC50 was 14.4 nM.

As to `CCN(C)C(=O)c1c(NC(=O)c2nc(C3CC3)cnc2Nc2cncnc2)cnn1C` [Example 203, 6-Cyclopropyl-3-(pyrimidin-5-ylamino)-pyrazine-2-carboxylic acid [5-(ethyl-methyl-carbamoyl)-1-methyl-1H-pyrazol-4-yl]-amide], the IC50 came out at 33.8 nM.

`CN(C)C(=O)c1c(F)cc(F)cc1NC(=O)c1nc(C2CC2)cnc1Nc1cncnc1` [Example 300, 6-Cyclopropyl-3-(pyrimidin-5-ylamino)-pyrazine-2-carboxylic acid (2-dimethylcarbamoyl-3,5-difluoro-phenyl)-amide]: the IC50 is 16.7 nM.

`Cc1ncc(Nc2cncnc2)c(C(=O)Nc2cn(C)nc2C(=O)NCC(C)(C)O)n1` [Example 112, N-(3-(2-Hydroxy-2-methylpropylcarbamoyl)-1-methyl-1H-pyrazol-4-yl)-2-methyl-5-(pyrimidin-5-ylamino)pyrimidine-4-carboxamide]: the IC50 worked out at 79.6 nM.

In the case of `Cn1cc(NC(=O)c2nc(C3CC3)ccc2Nc2cncnc2)c(C(=O)N2CC3(COC3)C2)n1` [Example 51, 6-Cyclopropyl-3-(pyrimidin-5-ylamino)-pyridine-2-carboxylic acid [1-methyl-3-(2-oxa-6-aza-spiro[3.3]heptane-6-carbonyl)-1H-pyrazol-4-yl]-amide], the IC50 stood at 58 nM.

As to `Cn1cc(NC(=O)c2nc(C3CC3)ccc2Nc2cncnc2)c(C(=O)NC2CCCC2)n1` [Example 34, 6-Cyclopropyl-3-(pyrimidin-5-ylamino)-pyridine-2-carboxylic acid (3-cyclopentylcarbamoyl-1-methyl-1H-pyrazol-4-yl)-amide], the IC50 came out at 4.5 nM.

On to `CNC(=O)c1cc(C(F)(F)F)ccc1NC(=O)c1nc(C2CC2)cnc1Nc1cncnc1` [Example 296, 6-Cyclopropyl-3-(pyrimidin-5-ylamino)-pyrazine-2-carboxylic acid (2-methylcarbamoyl-4-trifluoromethyl-phenyl)-amide], for which the IC50 came to 3.9 nM.

As for `Cn1ncc(NC(=O)c2nc(C3CC3)cnc2Nc2cncnc2)c1C(=O)NC(C)(C)CO` [Example 152, 6-Cyclopropyl-3-(pyrimidin-5-ylamino)-pyrazine-2-carboxylic acid [5-(2-hydroxy-1,1-dimethyl-ethylcarbamoyl)-1-methyl-1H-pyrazol-4-yl]-amide], the IC50 is 3.4 nM.

Regarding `CN(C(=O)c1nn(C)cc1NC(=O)c1nc(C2CC2)ccc1Nc1cncnc1)C1CCCCC1` [Example 17, 6-Cyclopropyl-3-(pyrimidin-5-ylamino)-pyridine-2-carboxylic acid [3-(cyclohexyl-methyl-carbamoyl)-1-methyl-1H-pyrazol-4-yl]-amide], the IC50 was 12.6 nM.

For the compound `Cc1ccc(NC(=O)c2nc(C3CC3)cnc2Nc2cncnc2)c(C(=O)NCC(C)(C)O)n1` [Example 183, 6-Cyclopropyl-3-(pyrimidin-5-ylamino)-pyrazine-2-carboxylic acid [2-(2-hydroxy-2-methyl-propylcarbamoyl)-6-methyl-pyridin-3-yl]-amide], the IC50 is 0.3 nM.

Turning to `CC(C)(O)CNC(=O)c1ncncc1NC(=O)c1nc(C2CC2)cnc1Nc1cncnc1` [Example 97, 5-{[6-Cyclopropyl-3-(pyrimidin-5-ylamino)-pyrazine-2-carbonyl]-amino}-pyrimidine-4-carboxylic acid (2-hydroxy-2-methyl-propyl)-amide], the IC50 was 1.1 nM.

In the case of `CC(C)(CO)NC(=O)c1ncccc1NC(=O)c1nc(C2CC2)cnc1Nc1cncnc1` [Example 273, 6-Cyclopropyl-3-(pyrimidin-5-ylamino)-pyrazine-2-carboxylic acid [2-(2-hydroxy-1,1-dimethyl-ethylcarbamoyl)-pyridin-3-yl]-amide], the IC50 turned out to be 0.3 nM.
